Numbers after ± are expanded uncertainties.
Tests used:
[1] = Crystal; DTA
[2] = Molar enthalpy of transition or fusion; settings: Crystal; DSC

Row | SMILES | Normal melting temperature [1] [°C] | Molar enthalpy of transition or fusion [2] [kcal/mol]
1 | c1ccc(Nc2ccccc2)cc1 [diphenylamine] | 53.50 ± 0.41 | 4.7 ± 0.454
2 | O=[N+]([O-])c1ccccc1Nc1ccccc1 [2-nitrodiphenylamine] | 74.79 ± 0.41 | 6.25 ± 0.454
3 | O=[N+]([O-])c1ccccc1Nc1ccccc1[N+](=O)[O-] [bis(2-nitrophenyl)amine] | 172.30 ± 0.41 | 4.39 ± 0.454
4 | CCN(N=O)c1ccc([N+](=O)[O-])cc1 [N-nitroso-N-ethyl-4-nitroaniline] | 118.60 ± 0.41 | 7.45 ± 0.454
5 | CCN(C(=O)N(CC)c1ccccc1)c1ccccc1 [1,3-diethyl-1,3-diphenylurea] | 71.87 ± 0.41 | 8.02 ± 0.454

Reference: the NIST ThermoML archive (doi:10.1007/s10765-013-1404-4)
